Test results published in patent US12589099B2 (priority 2021, dated 2026).

Columns and labels:
Type in all cases: in vivo, male Wistar rats
[1] = tested on: moderate traumatic brain injury (TBI) induced by controlled cortical impact (CCI); assay: Morris water maze (MWM) test after TBI
Protocol: (§1) FIG. 2: The figure illustrates functional tests that are carried out on healthy (sham surgery) no treatment, vehicle treated and ALPHA-1062 treated rats to assess sensorimotor and cognitive function after TBI. Sensimotor function tests. a) The figure depicts tests to assess the modified neurological severity score (mNSS). […] The animal is required to balance over a grid and the frequency of steps missing the grid are counted. This test assesses the functionality of the injured parietal cortex of the rat's brain. c) The adhesive removal test consists of applying adhesive tape on each forepaw of the animal and measuring the time-to-contact and the time-to-remove them. This behavior requires correct paw and mouth sensitivity (time-to-contact) and correct dexterity (time-to-remove). Cognitive function tests: a) This picture illustrates the Morris water maze that comprises that a rat is placed in a large circular pool (picture on the left) and is required to find an invisible platform that allows it to escape the water by using various visuo-spatial cues. This test is used to study spatial learning and memory and assesses hippocampal and select cortical brain region function. Usually, the path of the rat through the pool is tracked (picture on the right) and the time spend in the proximity of the platform as well as the time needed until the platform is found by the rat are measured. b) For the new/novel object recognition (NOR) test, after a habituation time in the test space (picture on far left) rats are given the opportunity to explore two identical objects (A) for a predetermined period of time (picture in the middle). After a delay, the animals are then presented with two objects to explore, one of which is the same as in the first exploration trial (A), the other a new object (B) (picture on the right). Depending on the length of the delay between the two trials or depending on the extend of cortical damage, the rats will either explore the novel object for a greater time period, indicating memory for the familiar object, or will explore the novel and familiar objects for the same amount of time, indicating a lack of recall or loss of memory for the familiar object presented during the initial trial.
(§2) Young adult (2-3 months) male Wistar rats were subjected to a moderate traumatic brain injury (TBI) induced by controlled cortical impact (CCI). Animal models of TBI including the CCI model and functional tests have been described in detail in peer reviewed publications (Xiong et al., 2013, Nat Rev Neurosci.; Zhang et al., 2016, J Neurosurg.; Zhang et al., 2016, Neurochem Int.; Zhang et al., 2021, J Neurotrauma). Injury consisted of a single impact at 4.0 m/sec, 2.5 mm deformation to the left parietal cortex. In addition, a group of animals was left healthy/not injured to serve as a healthy control.
The animals were divided into 3 groups: • 1) TBI+Vehicle (purified water, n=10) • 2) TBI+ALPHA-1062 (4.5 mg/kg) (n=10) • 3) Healthy/not injured and not treated (Sham surgery) (n=10)
The substance used in this study was ALPHA-1062 at 4.5 mg/kg. As control treatment (vehicle) purified water was administered intranasally (IN). The ALPHA-1062 and the control treatment were initiated 2 hours after injury and continued twice daily (with a 6-hour interval) for 35 consecutive days.
During the in vivo part of the study cognitive functional tests were performed by conducting Morris water maze (MWM) tests and novel object recognition tests on all animals at 5 weeks after TBI, with the MWM test being performed on days 31-35 following TBI (see Table 1).
The Morris water maze (MWM) is a test used in behavioral neuroscience to study spatial learning and memory, for example in rats. It enables spatial learning and memory to be studied, and can also be used to assess damage to hippocampus and select cortical regions of the brain. […]

[2] = tested on: moderate traumatic brain injury (TBI) induced by controlled cortical impact (CCI); assay: Novel object recognition (NOR) test after TBI
Protocol: as §1, with “Depending on the length of the delay between the two trials or depending on the extend of cortical damage, the rats will either explore the novel object for a greater time period, indicating memory for the familiar object, or will explore the novel and familiar objects for the same amount of time, indicating a lack of recall or loss of memory for the familiar object presented during the initial trial.” left out

[3] = tested on: DCX+ neuroblasts in the dentate gyrus of the hippocampus; assay: Doublecortin (DCX) IHC, neuroblasts in the dentate gyrus 35 days post-TBI; settings: 4.5 mg/kg IN twice daily; 35 days following TBI
Excerpt: as §2
The substance used in this study was ALPHA-1062 at 4.5 mg/kg. As control treatment (vehicle) purified water was administered intranasally (IN). […]
Histological assessment was performed including quantitative image analysis protocols; followed by statistical analysis of the data. […]
For cell counting and quantitation NeuN+ cells were examined in the ipsilateral cortex, DG, CA1, and CA3 regions of the ipsilateral hippocampus. […] The number of BrdU+ cells (red-fluorophore) and NeuN (green-fluorophore)/BrdU-colabeled cells (yellow after merge) were counted. […] The immune-positive cells were determined and divided by the measured areas and presented as numbers per square mm. […]

[4] = 4.5 mg/kg IN twice daily, days 33 to 35

Structure (SMILES): COc1ccc2c3c1O[C@H]1C[C@@H](OC(=O)c4ccccc4)C=C[C@@]31CCN(C)C2 [ALPHA-1062, (4aS,6R,8aS)-5,6,9,10,11,12-hexahydro-3-methoxy-11-methyl-4aH-[1]benzofuro[3a,3,2-ef][2]benzazepin-6-ol benzoate]
- MWM % time in the correct quadrant, compared to uninjured (sham surgery) animals [1, 4]: equivalent amount of time
- MWM % time in the correct quadrant, compared to vehicle [1, 4]: statistically significantly better
- MWM latency to find the hidden escape platform, compared to uninjured (sham) animals [1, 4]: as well as the uninjured (sham) animals
- MWM latency to find the hidden escape platform, compared to vehicle [1, 4]: statistically significantly better
- Morris Water Maze (MWM), performance over SHAM ([1]; rats after TBI, ALPHA-1062 treatment compared to healthy sham animals): equivalent to
- Morris Water Maze (MWM), performance over VEHICLE ([1]; rats after TBI, ALPHA-1062 treatment compared to vehicle treatment): superior
- NOR, percentage of time spent exploring novel object (B) vs familiar object ([2]; 4.5 mg/kg IN twice daily, 5 weeks after TBI): statistically significant preference for the novel object
- Novel Object Recognition, performance over SHAM ([2]; rats after TBI, compared to healthy sham animals): equivalent to
- Novel Object Recognition, performance over VEHICLE ([2]; rats after TBI, compared to vehicle treatment): superior
- DCX positive cells in dentate gyrus compared to sham surgery cohort [3]: comparable numbers
- DCX positive cells in dentate gyrus compared to vehicle [3]: higher number of DCX positive cells
